Experiment [1] relates to etiolated eto1-4 seedlings. Description: Triple response phenotype / hypocotyl length of etiolated eto1-4 seedlings. It is filed as in vivo, Arabidopsis thaliana. The conditions noted are these: 10 μM; etiolated eto1-4; FIG. 3. On the procedure: All mutants and transgenic plants were derived from the wild-type Arabidopsis thaliana Columbia ecotype (Col-0) and cultivated under a long-day condition (16-h light/8-h dark at 22° C.) under exemplary e light (100-150 μE m^−2 s^−1). A reporter construct, 5×EBS::LUC (a generous gift from Drs. Hai Li and Anna N. Stepanova, Salk Institute, USA), containing 5 copies of EIN3 binding sequence (EBS) fused with luciferase gene (LUC) was transformed to eto1-4 and subsequently used for screening compounds of a chemical library. Ethylene mutants eto1-4, eto2-1, ctr1-1 and the EIN3 overexpression line (35S::EIN3) were described previously (Solano, et al. (1998) Genes Dev 12, 3703-3714). Seeds were sterilized with 30% bleach for 6 min and sown in half-strength Murashige and Skoog (0.5×MS) medium supplemented with 0.8% agar and stratified in the dark at 4° C. for 3-4 days before germination. For analysis of the triple response phenotype, stratified seeds were grown in the dark at 22° C. for 3 days before scoring the phenotype.
A DIVERSet library (ChemBridge Inc.) containing 10,000 small molecules (in DMSO) was used for chemical screening. Three rounds of chemical screenings were carried out in 0.5×MS agar medium containing individual chemicals in each well of 96- and 24-well micro-titer plates. The initial screening was performed by sowing 10 to 15 seeds in the wells of micro-titer plates containing small molecules at 50 μM to score the long-hypocotyl phenotype. For the second and third screenings, we used 25 μM of small molecules selected from the first round of screening to score and confirm the phenotype. The seedling phenotype was scored by use of a digital camera attached to a Zeiss stereomicroscope (SteREO V8), and quantitation of hypocotyl length was performed by use of NIH Image J software. AVG and silver thiosulfate (STS, by mixing silver nitrate and sodium thiosulfate at a 1:4 molar ratio immediately before use) were obtained from Sigma and used as controls to suppress ethylene biosynthesis and perception, respectively. Agar medium was supplemented with 1-aminocyclopropane-1-carboxylic acid (10 μM, Merck) to induce the triple response in etiolated seedlings.
Shortened hypocotyls in etiolated seedlings is one of the triple response phenotypes (Guzman, et al. (1990) Plant Cell 2, 513-523; Wang, et al. (2004) Nature 428, 945-950). Two chemical compounds negating ethylene response, AVG and STS, were included as a control for comparison.

The subject of experiment [2] is 5×EBS::LUC reporter (EIN3 binding sequence) in eto1-4. Nature of the experiment: Luciferase activity of 5×EBS::LUC reporter in eto1-4 seedlings. It is filed as in vivo, Arabidopsis thaliana. The following applies: 10 μM.
Experimental: For live imaging of luciferase activity, plants were first grown in the dark at 22° C. for 3 days, then under exemplary e light for 3 more days before the luciference of seedlings was imaged. Six-day-old seedlings were sprayed with luciferin (2 μM, Biosynth International Inc.) and kept in the dark for 5 min before collecting images by the Xenogen IVIS System (Caliper Life Sciences, Inc.). For quantitative assay of luciferase activity, the etiolated seedlings mentioned above were transferred to exemplary e micro-titer plates (Packard Optiplate-96, Perkin Elmer Inc.) for an additional 3 days under exemplary e light in 0.5×MS solution. The luciferase activity of seedlings was quantitated by use of a microplate reader (CHAMELEON, Hidex Inc.) in the presence of 2 μM luciferin.
To confirm the suppression of the eto1-4 phenotype resulting from disruption of the ethylene response, the following assays were performed. First, luciferase activity was analyzed with a transgenic reporter line harboring 5 copies of a synthetic promoter fusion with a luciferase gene (LUC), 5×EBS::LUC, in the eto1-4 background.

On to `CC1CC(=O)c2cnc(Nc3ccccc3)nc2C1` (centres unmarked) [Compound 2305], for which, in experiment [1], the “ranking in both hypocotyl length and ethylene level assays” value is recorded as “most effective”.
Same read-out and setting: next, `CCCCNc1ncc2c(n1)CC(c1ccccc1)CC2=O` (centres unmarked) [Compound 2616]: “most effective”; `O=C1CC(c2ccccc2Cl)Cc2nc(NC3CCCC3)ncc21` (centres unmarked) [Compound 8107]: “most effective”; `CC1(C)CC(=O)c2cnc(Nc3ccccc3)nc2C1` [Compound 9028]: “most effective”.
In the case of silver thiosulfate [STS], the “luciferase activity of 5×EBS::LUC in eto1-4” value in experiment [2] is “suppressed”.

For the origin of these results see US8481459B2, “Chemical inhibitors of ethylene biosynthesis” (Academia Sinica, priority 2010, dated 2013).
